# According to patent US5206223A, “Method for inhibiting heparanase activity” (Yeda Research and Development Co. Ltd., priority 1986, dated 1993):
# Legend:
# DTH reaction = experiment: In situ DTH: I-LNC injected directly into the ears; format: in vivo, mice; settings: heparin 5 u.g, I-LNC intradermally into ears, 24 h
# Procedure: If inhibition of heparanase and heparanase-dependent traffic is the major mechanism by which low dose heparin suppresses DTH, then one might be able to bypass the inhibition of DTH by bypassing the need for vascular traffic of sensitized T lymphocytes. Accordingly we treated recipient mice with an inhibitory dose (5 μg) of heparin, and then injected the donor I-LNC directly into the ears, rather than intravenously. Table 7 illustrates that putting the sensitized lymphocytes in situ bypassed the inhibitory effect on the DTH of 5 μg of heparin. Thus low dose heparin treatment appeared to inhibit DTH only when the DTH-mediat lymphocytes had to make their way to the site of the antigen by way of the circulation.
# I-LNC were obtained from BALB/c mice sensitized to OX 5 days earlier. The I-LNC were centrifuged, resuspended in RPMI medium and injected intradermally (3×10^6 cells/20 μ/l) into the dorsal surface of the ears of naive recipient mice. The ears were challenged with OX immediately after cell transfer. The magnitude of DTH ear swelling was determined 24 h later.
# rheumatoid arthritis = experiment: Treatment of patients with rheumatoid arthritis; format: in vivo, human; settings: about 300-500 units daily for 1 month, three patients
# Description: As DTH reactions to self antigens are involved in autoimmune diseases, we have begun to test low dose heparin (about 300-500 units daily) in patients with rheumatoid arthritis.
# [1] = tested on: experimental autoimmune encephalomyelitis (EAE); experiment: Experimental autoimmune encephalomyelitis (EAE) produced by anti-BP T lymphocytes; format: in vivo, Lewis rats; settings: for Day of onset of EAE / Duration of EAE / % incidence of EAE / Clinical score of EAE: 0.1 mg/kg daily; for % incidence of EAE: None 100; for Clinical score of EAE: scale 1-4, None 3.0
# Description: EAE is an experimental autoimmune disease with some features reminiscent of multiple sclerosis in humans. The disease is caused by T lymphocytes immunized to the basic protein (BP) of the central nervous system myelin. To test the effect of heparins on the ability of T lymphocytes to cause autoimmune disease, we used T lymphocytes sensitized against BP, either as T cell lines (Cohen, I. R. Experimental autoimmune encephalomyelitis: Pathogenesis and prevention. In: Immunoregulatory Processes in Multiple Sclerosis and Experimental Allergic Encephalomyelitis. A. A. Vandenbark and J. C. M. Raus, eds. Elsevier Biomedical Res. Amsterdam. 7:91-125 (1985)) or as populations of lymph node cells from BP immunized rats.
# EAE was produced by inoculating Lewis rats with a T cell line of anti-BP T lymphocytes (10^6 cells) with anti-BP primed lymph node cells (10^7 cells) intravenously (Cohen, I. R. Experimental autoimmune encephalomyelitis: Pathogenesis and prevention. In: Immunoregulatory Processes in Multiple Sclerosis and Experimental Allergic Encephalomyelitis. A. A. Vandenbark and J. C. M. Raus, eds. Elsevier Biomedical Res. Amsterdam. 7:91-125 (1985)) One day before inoculation and daily for 10 days, the rats received either saline or the heparins.
substance,measurement,setting,value
heparin,Ear swelling,"DTH reaction; OX challenge no, no heparin 9 ± 1.0",8 ± 1.0 ×10^-4 inch
same,Ear swelling,"DTH reaction; OX challenge yes, no heparin 22 ± 3.4",20.4 ± 1.6 ×10^-4 inch
same,Clinical improvement of severe rheumatoid arthritis,rheumatoid arthritis,all 3 were improved
same,EAE clinical score (FIG. 3),"[1]; 0.02 mg daily s.c. (0.1 mg/kg), from 1 day before T lymphocyte inoculation",inhibits EAE
same,Day of onset of EAE,"[1]; B: T cell line, None 5.0",6.5
same,Duration of EAE,"[1]; B: T cell line, None 5.5",3.6 days
same,% incidence of EAE,[1]; B: T cell line,20%
same,Clinical score of EAE,[1]; B: T cell line,1.0
same,Day of onset of EAE,"[1]; D: primed lymph node cells, None 4.0",6.3
same,Duration of EAE,"[1]; D: primed lymph node cells, None 5.3",4.0 days
same,% incidence of EAE,[1]; D: primed lymph node cells,75%
same,Clinical score of EAE,[1]; D: primed lymph node cells,1.5
